Where a name gives a salt, the structure may show the parent alone. Active and inactive are the calls of the source.
What was measured:
[1] = molecular target: T1, Mannose-6-phosphate isomerase (Homo sapiens, UniProt P34949); assay: phosphomannose isomerase inhibition – biochemical, fluorescence intensity, confirmation (AID 1535)
T1 sequence (P34949 whole entry): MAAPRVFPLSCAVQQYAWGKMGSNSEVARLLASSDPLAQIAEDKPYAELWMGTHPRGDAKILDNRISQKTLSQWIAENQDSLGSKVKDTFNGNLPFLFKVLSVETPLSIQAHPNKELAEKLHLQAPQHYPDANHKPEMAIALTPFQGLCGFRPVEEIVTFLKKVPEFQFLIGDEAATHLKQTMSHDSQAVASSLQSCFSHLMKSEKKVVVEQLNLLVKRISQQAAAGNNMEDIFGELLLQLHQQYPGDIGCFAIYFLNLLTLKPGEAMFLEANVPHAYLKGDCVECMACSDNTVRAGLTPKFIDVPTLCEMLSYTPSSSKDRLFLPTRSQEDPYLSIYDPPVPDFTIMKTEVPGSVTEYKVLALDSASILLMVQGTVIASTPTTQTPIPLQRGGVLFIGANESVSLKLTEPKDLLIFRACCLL

[2] = molecular target: Tyrosine-protein phosphatase non-receptor type 7 (Homo sapiens, UniProt P35236); assay: redox-active compounds inhibiting HePTP phosphatase – biochemical, fluorescence, mechanism study (AID 2068); assay type: functional
[3] = molecular target: Dual specificity protein phosphatase 6 (Rattus norvegicus, UniProt Q64346); assay type: functional;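 further: confirmatory in vitro dose-response testing of MKP-3 inhibition; recombinant His-tagged MKP-3 made in E. coli BL21 with OMFP substrate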
[4] = molecular target: T2, Voltage-gated N-type calcium channel alpha-1B subunit/Amyloid beta A4 precursor protein-binding family A member 1 (Homo sapiens, UniProt Q00975+Q02410); assay: disruptors of Mint-PDZ/N-type channel peptide interaction – biochemical, HTRF, set 2, SAR follow-up (AID 434980); assay type: functional
[5] = molecular target: T2, Voltage-gated N-type calcium channel alpha-1B subunit/Amyloid beta A4 precursor protein-binding family A member 1; assay: disruptors of Mint-PDZ/N-type channel peptide interaction – biochemical, HTRF, SAR follow-up (AID 2489); assay type: functional
SUMO E1/E2 = SUMO E1/E2 (Homo sapiens, UniProt P63279+Q9UBE0+Q9UBT2); assay: SAR analysis of SUMOylation using HTRF in an in-Vitro dose response assay. [Related pubchem assays (depositor defined):AID2006, AID2011, AID2018, AID2069, AID2658]; assay type: functional
[6] = molecular target: UDP-galactopyranose mutase (Mycobacterium tuberculosis, UniProt P9WIQ1); assay: Inhibitors of Mycobacterium tuberculosis UDP-galactopyranose mutase (UGM) enzyme Measured in Biochemical System Using Plate Reader - 2105-02_Inhibitor_Dose_CherryPick_Activity. [Related pubchem assays (depositor defined):AID504439]
A-375 = assay: MITF: Counter assay: A375 proliferation Measured in Cell-Based System Using Plate Reader - 2084-03_Inhibitor_Dose_DryPowder_Activity. [Related pubchem assays (depositor defined):AID488944]; assay type: functional; settings: Homo sapiens
[7] = viability of HCT116 lacking mutant beta-catenin – cell-based, human colon tumor, dose response (AID 1045); assay type: functional;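 further: HCT116 colon tumor cells with beta catenin knocked out; cells exposed to compound for 60 hours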
[8] = NIH-3T3 fibroblast cytotoxicity, dose response, cytotoxicity control, cell-based, fluorescence, Alamar Blue, secondary assay (AID 2327); assay type: functional;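 further: NIH-3T3 mouse fibroblasts cultured with fluconazole at 8 µg/mL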
[9] = fluconazole-exposed Candida albicans growth modulators – fluorescence, retest, confirmation (AID 2467); assay type: functional, cell-based
[10] = viability of PTEN-deleted HCT116 cells – cell-based, HCT116 PTEN knockout, dose response (AID 1047); assay type: functional;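 further: HCT116 colon tumor cells with PTEN knocked out; cells exposed to compound for 60 hours before readout; potency for loss of cell viability measured by luminescence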
[11] = molecular target: T3, Corticotropin-releasing factor receptor 2/Corticotropin-releasing factor-binding protein (Homo sapiens, UniProt P24387+Q13324); assay: Dose Response confirmation of uHTS hits for small molecule antagonists of the CRF-binding protein and CRF-R2 receptor complex.; assay type: functional; settings: read-out: IC50_Mean
T3 sequence (Q13324 whole entry): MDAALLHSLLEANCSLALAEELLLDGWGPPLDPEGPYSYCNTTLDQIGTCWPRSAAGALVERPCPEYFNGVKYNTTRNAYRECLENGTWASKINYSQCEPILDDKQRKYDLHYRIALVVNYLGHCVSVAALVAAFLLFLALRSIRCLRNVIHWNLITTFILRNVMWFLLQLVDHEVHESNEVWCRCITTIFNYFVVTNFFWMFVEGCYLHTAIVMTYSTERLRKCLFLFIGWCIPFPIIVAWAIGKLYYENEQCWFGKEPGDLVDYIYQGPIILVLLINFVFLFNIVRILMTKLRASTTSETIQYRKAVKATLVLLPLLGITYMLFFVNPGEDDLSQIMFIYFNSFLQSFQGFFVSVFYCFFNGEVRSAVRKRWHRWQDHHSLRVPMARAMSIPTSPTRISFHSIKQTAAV
T3 sequence (P24387 whole entry): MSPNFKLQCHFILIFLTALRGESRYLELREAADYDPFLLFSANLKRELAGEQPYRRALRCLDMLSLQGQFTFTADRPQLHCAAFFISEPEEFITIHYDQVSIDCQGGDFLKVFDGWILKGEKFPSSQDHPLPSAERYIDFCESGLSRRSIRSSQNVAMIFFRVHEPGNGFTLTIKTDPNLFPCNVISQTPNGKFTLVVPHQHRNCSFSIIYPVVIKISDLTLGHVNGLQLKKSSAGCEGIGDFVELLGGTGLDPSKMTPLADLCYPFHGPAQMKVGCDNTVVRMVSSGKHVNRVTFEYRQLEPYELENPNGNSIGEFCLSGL

[12] = molecular target: Voltage-gated inwardly rectifying potassium channel KCNH2 (Homo sapiens, UniProt Q12809); settings: Potency;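 further: confirmatory quantitative high-throughput screen measuring inhibition of hERG channel activity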
[13] = molecular target: T3, Corticotropin-releasing factor receptor 2/Corticotropin-releasing factor-binding protein; assay: activators of CRF receptor 2 with binding protein – uHTS hits, confirmation (AID 602473); assay type: functional; settings: read-out: EC50_Mean

T2 sequence (Q00975 whole entry): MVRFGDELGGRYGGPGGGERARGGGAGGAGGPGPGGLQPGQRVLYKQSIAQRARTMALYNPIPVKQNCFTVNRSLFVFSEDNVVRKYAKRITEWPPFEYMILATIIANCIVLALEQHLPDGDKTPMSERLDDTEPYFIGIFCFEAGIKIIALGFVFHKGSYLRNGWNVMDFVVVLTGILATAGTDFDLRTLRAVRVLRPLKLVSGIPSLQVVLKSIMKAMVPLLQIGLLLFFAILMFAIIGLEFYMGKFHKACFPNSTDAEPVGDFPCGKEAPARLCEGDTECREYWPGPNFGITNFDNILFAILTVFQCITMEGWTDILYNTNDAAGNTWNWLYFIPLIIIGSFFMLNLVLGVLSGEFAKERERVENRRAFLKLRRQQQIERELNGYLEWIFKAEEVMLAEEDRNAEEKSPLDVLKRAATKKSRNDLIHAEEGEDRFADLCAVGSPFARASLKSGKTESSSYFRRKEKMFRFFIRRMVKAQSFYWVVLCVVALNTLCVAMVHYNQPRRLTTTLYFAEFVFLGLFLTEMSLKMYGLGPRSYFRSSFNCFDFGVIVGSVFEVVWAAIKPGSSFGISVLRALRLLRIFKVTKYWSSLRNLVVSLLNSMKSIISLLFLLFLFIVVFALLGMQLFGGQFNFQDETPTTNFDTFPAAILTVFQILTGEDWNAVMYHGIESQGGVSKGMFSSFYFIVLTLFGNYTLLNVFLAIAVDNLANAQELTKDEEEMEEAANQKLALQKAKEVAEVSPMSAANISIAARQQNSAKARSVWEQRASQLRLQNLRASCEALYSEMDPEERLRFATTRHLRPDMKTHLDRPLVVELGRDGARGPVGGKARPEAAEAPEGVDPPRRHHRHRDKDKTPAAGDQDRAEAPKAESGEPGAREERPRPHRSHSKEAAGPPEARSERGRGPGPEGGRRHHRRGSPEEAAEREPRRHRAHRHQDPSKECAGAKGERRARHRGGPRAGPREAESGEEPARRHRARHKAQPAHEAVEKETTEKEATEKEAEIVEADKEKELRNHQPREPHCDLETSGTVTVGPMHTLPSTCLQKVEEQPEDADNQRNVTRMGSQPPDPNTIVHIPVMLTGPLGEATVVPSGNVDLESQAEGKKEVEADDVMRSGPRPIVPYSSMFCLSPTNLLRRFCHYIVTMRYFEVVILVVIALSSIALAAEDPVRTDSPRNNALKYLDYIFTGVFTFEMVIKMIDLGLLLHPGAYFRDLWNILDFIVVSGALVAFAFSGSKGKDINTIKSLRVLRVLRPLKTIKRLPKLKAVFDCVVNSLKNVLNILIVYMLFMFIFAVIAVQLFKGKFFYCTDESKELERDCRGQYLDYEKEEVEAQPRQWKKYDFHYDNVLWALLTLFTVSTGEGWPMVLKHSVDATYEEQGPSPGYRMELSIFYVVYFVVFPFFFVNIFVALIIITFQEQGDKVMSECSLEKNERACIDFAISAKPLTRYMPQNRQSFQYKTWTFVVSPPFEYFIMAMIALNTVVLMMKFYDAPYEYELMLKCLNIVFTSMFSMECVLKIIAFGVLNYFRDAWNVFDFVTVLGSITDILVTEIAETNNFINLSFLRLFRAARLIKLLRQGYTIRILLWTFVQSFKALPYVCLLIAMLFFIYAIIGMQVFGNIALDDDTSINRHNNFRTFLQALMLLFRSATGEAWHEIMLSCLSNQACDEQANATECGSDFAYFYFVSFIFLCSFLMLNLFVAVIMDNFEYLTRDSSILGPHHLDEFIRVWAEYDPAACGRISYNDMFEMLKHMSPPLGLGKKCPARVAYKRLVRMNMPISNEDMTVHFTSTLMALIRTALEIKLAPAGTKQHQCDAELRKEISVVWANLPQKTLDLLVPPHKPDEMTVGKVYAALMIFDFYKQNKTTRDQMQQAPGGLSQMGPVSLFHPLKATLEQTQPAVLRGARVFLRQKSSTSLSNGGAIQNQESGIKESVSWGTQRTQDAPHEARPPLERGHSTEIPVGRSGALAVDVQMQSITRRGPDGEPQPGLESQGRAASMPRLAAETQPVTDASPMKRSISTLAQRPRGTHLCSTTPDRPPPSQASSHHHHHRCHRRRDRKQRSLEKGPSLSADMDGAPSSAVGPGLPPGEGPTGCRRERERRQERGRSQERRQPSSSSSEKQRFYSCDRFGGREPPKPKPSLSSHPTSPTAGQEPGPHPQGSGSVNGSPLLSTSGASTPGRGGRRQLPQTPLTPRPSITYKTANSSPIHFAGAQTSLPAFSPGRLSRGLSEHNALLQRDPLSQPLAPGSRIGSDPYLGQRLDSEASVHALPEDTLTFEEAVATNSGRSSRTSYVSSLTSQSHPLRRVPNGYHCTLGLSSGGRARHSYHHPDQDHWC
T2 sequence (Q02410 whole entry): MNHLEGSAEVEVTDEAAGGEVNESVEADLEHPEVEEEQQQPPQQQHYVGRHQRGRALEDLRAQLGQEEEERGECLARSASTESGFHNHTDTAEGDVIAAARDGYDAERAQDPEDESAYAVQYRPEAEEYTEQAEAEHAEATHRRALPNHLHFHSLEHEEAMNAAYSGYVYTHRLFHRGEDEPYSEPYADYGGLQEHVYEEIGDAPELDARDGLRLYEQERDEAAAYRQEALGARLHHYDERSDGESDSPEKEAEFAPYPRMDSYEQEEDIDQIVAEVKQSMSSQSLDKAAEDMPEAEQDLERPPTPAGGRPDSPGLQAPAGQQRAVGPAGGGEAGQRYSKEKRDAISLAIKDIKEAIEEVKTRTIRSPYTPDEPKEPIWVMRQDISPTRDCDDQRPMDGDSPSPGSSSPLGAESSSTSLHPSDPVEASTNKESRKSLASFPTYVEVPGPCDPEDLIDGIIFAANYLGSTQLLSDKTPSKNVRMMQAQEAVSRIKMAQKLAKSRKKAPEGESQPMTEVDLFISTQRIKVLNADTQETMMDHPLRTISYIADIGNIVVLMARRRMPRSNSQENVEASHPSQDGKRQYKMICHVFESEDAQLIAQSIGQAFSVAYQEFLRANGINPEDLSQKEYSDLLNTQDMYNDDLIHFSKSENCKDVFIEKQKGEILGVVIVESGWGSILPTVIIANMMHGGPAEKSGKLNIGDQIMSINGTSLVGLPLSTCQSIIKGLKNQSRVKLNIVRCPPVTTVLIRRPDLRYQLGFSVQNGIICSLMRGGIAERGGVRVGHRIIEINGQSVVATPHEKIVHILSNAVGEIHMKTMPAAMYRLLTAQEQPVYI
Dual specificity protein phosphatase 6, sequence (Q64346 whole entry): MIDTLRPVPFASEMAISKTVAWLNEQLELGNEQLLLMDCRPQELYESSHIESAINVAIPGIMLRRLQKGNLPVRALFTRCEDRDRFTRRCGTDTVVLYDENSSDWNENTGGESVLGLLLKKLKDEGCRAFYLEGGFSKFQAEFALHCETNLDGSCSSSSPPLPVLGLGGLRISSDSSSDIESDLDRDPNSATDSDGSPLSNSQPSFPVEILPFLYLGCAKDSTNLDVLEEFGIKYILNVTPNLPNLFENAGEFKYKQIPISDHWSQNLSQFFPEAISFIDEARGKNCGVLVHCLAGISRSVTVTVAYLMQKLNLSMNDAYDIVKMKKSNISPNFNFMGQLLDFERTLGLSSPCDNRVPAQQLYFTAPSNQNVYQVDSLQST
Tyrosine-protein phosphatase non-receptor type 7, sequence (P35236 whole entry): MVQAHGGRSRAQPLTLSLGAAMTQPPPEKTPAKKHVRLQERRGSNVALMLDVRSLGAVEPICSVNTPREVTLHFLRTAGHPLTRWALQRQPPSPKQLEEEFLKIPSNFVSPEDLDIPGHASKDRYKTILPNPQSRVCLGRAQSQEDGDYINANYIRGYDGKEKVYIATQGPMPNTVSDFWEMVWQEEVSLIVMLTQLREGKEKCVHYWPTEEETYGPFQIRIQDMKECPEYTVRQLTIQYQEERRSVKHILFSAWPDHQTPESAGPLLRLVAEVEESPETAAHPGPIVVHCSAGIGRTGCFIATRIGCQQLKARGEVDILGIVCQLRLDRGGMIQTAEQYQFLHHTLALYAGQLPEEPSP
SUMO E1/E2, sequence (Q9UBE0 whole entry): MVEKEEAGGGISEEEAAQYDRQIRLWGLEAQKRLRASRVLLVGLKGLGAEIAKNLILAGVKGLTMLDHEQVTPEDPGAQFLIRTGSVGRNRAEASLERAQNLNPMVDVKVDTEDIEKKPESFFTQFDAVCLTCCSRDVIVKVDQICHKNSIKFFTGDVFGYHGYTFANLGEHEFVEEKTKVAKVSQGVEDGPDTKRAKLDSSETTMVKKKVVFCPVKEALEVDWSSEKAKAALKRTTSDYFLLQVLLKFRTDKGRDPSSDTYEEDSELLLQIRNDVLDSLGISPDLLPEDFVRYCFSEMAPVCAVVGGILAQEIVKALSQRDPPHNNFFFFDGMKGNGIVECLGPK
SUMO E1/E2, sequence (Q9UBT2 whole entry): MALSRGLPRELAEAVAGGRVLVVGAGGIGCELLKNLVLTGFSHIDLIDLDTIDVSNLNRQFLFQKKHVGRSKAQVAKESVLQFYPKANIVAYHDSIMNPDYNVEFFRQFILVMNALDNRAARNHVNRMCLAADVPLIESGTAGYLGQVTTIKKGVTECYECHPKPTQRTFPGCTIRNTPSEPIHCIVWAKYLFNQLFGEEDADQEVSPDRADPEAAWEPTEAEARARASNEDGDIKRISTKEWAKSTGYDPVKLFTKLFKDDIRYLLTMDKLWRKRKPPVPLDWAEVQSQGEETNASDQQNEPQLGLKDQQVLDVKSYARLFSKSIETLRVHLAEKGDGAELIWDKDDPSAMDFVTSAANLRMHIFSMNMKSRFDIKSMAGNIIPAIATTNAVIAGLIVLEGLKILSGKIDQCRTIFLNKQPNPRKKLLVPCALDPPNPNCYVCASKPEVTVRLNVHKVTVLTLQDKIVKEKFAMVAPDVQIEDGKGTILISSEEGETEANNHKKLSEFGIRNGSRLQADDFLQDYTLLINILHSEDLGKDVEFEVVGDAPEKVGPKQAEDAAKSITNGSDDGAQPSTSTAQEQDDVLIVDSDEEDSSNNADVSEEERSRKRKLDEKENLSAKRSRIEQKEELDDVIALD
SUMO E1/E2, sequence (P63279 whole entry): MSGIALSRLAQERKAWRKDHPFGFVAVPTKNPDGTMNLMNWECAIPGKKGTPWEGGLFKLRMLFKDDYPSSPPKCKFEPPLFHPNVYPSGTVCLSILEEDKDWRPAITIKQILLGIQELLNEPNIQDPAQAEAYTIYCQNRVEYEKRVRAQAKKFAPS

In the case of O=c1c2cc(F)ccc2sn1-c1ccccc1F, the IC50 [1] is reported as 5.3 µM (active).

With CCN(CC)C(=S)c1ccc(O)c(OC)c1 the IC50 [2] was 4.42 µM (active) and the IC50 [3] was > 100 µM (inactive).

For O=C(COC(=O)c1cc(-c2ccco2)nc2ccccc12)NCc1cccc(Cl)c1, the IC50 [4] was 30.7 µM (active), the IC50 [5] was 23.7 µM (active) and the IC50 (SUMO E1/E2) was 4.63 µM (active).

In the case of O=C(NCC1CCCO1)c1cccc2c1C(=O)c1ccc(N3CCC(Cc4ccccc4)CC3)cc1S2(=O)=O (stereo not given), the AC50 [6] is reported as 52.6 µM (active).

With CCOc1cc(/C=N/N=C(N)N)ccc1OCc1ccc(Cl)cc1 the AC50 (A-375) was 18 µM (active), the EC50 [7] was 3.01 µM (active) and the EC50 [8] was 81.2 µM (active). The EC50 [9] was > 38 µM (not active) and the EC50 [10] was 3.92 µM (active).

In the case of c1ccc(C2CN3CCSC3=N2)cc1 (stereo not given) [TETRAMISOLE HYDROCHLORIDE], the IC50 [11] is reported as > 47.1 µM (inactive), the AC50 [12] is reported as 35.5 µM (inconclusive) and the EC50 [13] is reported as > 53 µM (inactive).
